Experimental data: US8673908B2, “Kynurenine production inhibitor” (Kyowa Hakko Kirin Co., Ltd., priority 2008, dated 2014)
pIC50: −log10 of the molar value.

System: kynurenine production in IFN-γ-treated KATO-III cells
Assay: Inhibitory activity on kynurenine production (Test Example 1)
Type: cell-based
Conditions: Homo sapiens, IFN-γ treatment, culture for 96 hours, read-out: IC50 value, inhibition of kynurenine production
Procedure, shortened: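 KATO-III human gastric cancer cells (2,000/well, RPMI 1640 + 10% FBS) were cultured with compound and IFN-γ (31.25 ng/mL in the cell suspension), DMSO ≤0.1%, for 96 h at 37 °C, 5% CO2. Kynurenine was read at A480 after TCA at 65 °C and p-dimethylaminobenzaldehyde. Inhibition used IFN-γ-treated and untreated DMSO wells as references.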

| Structure (SMILES) | pIC50 |
| --- | --- |
| CCCS(=O)(=O)Nc1nc2ccccc2nc1OC(C1CCN(C(=O)CC)CC1)C(F)(F)F (stereo not drawn) [Compound 340, N-{3-[2,2,2-trifluoro-1-(1-propionylpiperidin-4-yl)ethoxy]-quinoxalin-2-yl}propane-1-sulfonamide] | > 6.00 |
| CCCS(=O)(=O)Nc1nc2ccccc2nc1OC(C1CCN(C(=O)C2CC2)CC1)C(F)(F)F (stereo not drawn) [Compound 341, N-{3-[2,2,2-trifluoro-1-(1-cyclopropanecarbonylpiperidin-4-yl)ethoxy]quinoxalin-2-yl}propane-1-sulfonamide] | > 6.00 |
| CCCS(=O)(=O)Nc1nc2ccccc2nc1O[C@H](c1cnc(C)s1)C(F)(F)F [Compound 342, (S)—N-{3-[2,2,2-trifluoro-1-(2-methylthiazol-5-yl)ethoxy]-quinoxalin-2-yl}propane-1-sulfonamide] | > 6.00 |
| CCCS(=O)(=O)Nc1nc2ccccc2nc1O[C@@H](c1cnc(C)s1)C(F)(F)F [Compound 343, (R)—N-{3-[2,2,2-trifluoro-1-(2-methylthiazol-5-yl)ethoxy]-quinoxalin-2-yl}propane-1-sulfonamide] | 5.00 to 6.00 |
| CCCS(=O)(=O)Nc1nc2ccccc2nc1OC(c1csc(C)n1)C(F)(F)F (stereo not drawn) [Compound 344, N-{3-[2,2,2-trifluoro-1-(2-methylthiazol-4-yl)ethoxy]-quinoxalin-2-yl}propane-1-sulfonamide] | > 6.00 |
| CCCS(=O)(=O)Nc1nc2ccccc2nc1OCc1cnc(C)s1 [Compound 345, N-{3-[(2-methylthiazol-5-yl)methoxy]quinoxalin-2-yl}-propane-1-sulfonamide] | 5.00 to 6.00 |
| CCCS(=O)(=O)Nc1nc2ccccc2nc1O[C@@H](C1CCOCC1)C(F)(F)F [Compound 346, (S)—N-{3-[2,2,2-trifluoro-1-(tetrahydro-2H-pyran-4-yl)-ethoxy]quinoxalin-2-yl}propane-1-sulfonamide] | 5.00 to 6.00 |
| CCCS(=O)(=O)Nc1nc2ccccc2nc1O[C@H](C1CCOCC1)C(F)(F)F [Compound 347, (R)—N-{3-[2,2,2-trifluoro-1-(tetrahydro-2H-pyran-4-yl)-ethoxy]quinoxalin-2-yl}propane-1-sulfonamide] | > 6.00 |
| CCCS(=O)(=O)Nc1nc2ccccc2nc1O[C@H](c1ccc(Cl)nc1)C(F)(F)F [Compound 348, (R)—N-{3-[2,2,2-trifluoro-1-(6-chloropyridin-3-yl)ethoxy]-quinoxalin-2-yl}propane-1-sulfonamide] | > 6.00 |
| CCCS(=O)(=O)Nc1nc2ccccc2nc1O[C@H](c1cccc(C#N)c1)C(F)(F)F [Compound 349, (R)—N-{3-[2,2,2-trifluoro-1-(3-cyanophenyl)ethoxy]-quinoxalin-2-yl}propane-1-sulfonamide] | > 6.00 |
| CCCS(=O)(=O)Nc1nc2ccccc2nc1OC(C(F)(F)F)C1(F)CCOCC1 (stereo not drawn) [Compound 350, N-{3-[2,2,2-trifluoro-1-(4-fluorotetrahydro-2H-pyran-4-yl)-ethoxy]quinoxalin-2-yl}propane-1-sulfonamide] | > 6.00 |
| CCCS(=O)(=O)Nc1nc2ccccc2nc1OC(C(F)(F)F)C1(C#N)CCOCC1 (stereo not drawn) [Compound 351, N-{3-[2,2,2-trifluoro-1-(4-cyanotetrahydro-2H-pyran-4-yl)-ethoxy]quinoxalin-2-yl}propane-1-sulfonamide] | > 6.00 |
| CCCS(=O)(=O)Nc1nc2ccccc2nc1OC(C(F)(F)F)C1(O)CCOCC1 (stereo not drawn) [Compound 352, N-{3-[2,2,2-trifluoro-1-(4-hydroxytetrahydro-2H-pyran-4-yl)ethoxy]quinoxalin-2-yl}propane-1-sulfonamide] | 5.00 to 6.00 |
| CCCS(=O)(=O)Nc1nc2ccccc2nc1OC(C(F)(F)F)C1(OC)CCOCC1 (stereo not drawn) [Compound 353, N-{3-[2,2,2-trifluoro-1-(4-methoxytetrahydro-2H-pyran-4-yl)ethoxy]quinoxalin-2-yl}propane-1-sulfonamide] | > 6.00 |
| CCCS(=O)(=O)Nc1nc2ccccc2nc1OC(C(F)(F)F)C1(F)CCN(C(C)=O)CC1 (stereo not drawn) [Compound 354, N-{3-[2,2,2-trifluoro-1-(1-acetyl-4-fluoropiperidin-4-yl)-ethoxy]quinoxalin-2-yl}propane-1-sulfonamide] | > 6.00 |
| CCCS(=O)(=O)Nc1nc2ccccc2nc1OC(C(F)(F)F)C1(F)CCN(S(C)(=O)=O)CC1 (stereo not drawn) [Compound 355, N-{3-[2,2,2-trifluoro-1-(4-fluoro-1-methanesulfonylpiperidin-4-yl)ethoxy]quinoxalin-2-yl}propane-1-sulfonamide] | > 6.00 |
| CCCS(=O)(=O)Nc1nc2ccccc2nc1OC(C(F)(F)F)C1(C)CCN(C(C)=O)CC1 (stereo not drawn) [Compound 356, N-{3-[2,2,2-trifluoro-1-(1-acetyl-4-methylpiperidin-4-yl)-ethoxy]quinoxalin-2-yl}propane-1-sulfonamide] | > 6.00 |
| CCCS(=O)(=O)Nc1nc2ccccc2nc1OC(C(F)(F)F)C1(C)CCN(S(C)(=O)=O)CC1 (stereo not drawn) [Compound 357, N-{3-[2,2,2-trifluoro-1-(1-methanesulfonyl-4-methylpiperidin-4-yl)ethoxy]quinoxalin-2-yl}propane-1-sulfonamide] | > 6.00 |
| CCCS(=O)(=O)Nc1cc2ccccc2nc1OC(c1cccnc1)C(F)(F)F (stereo not drawn) [Compound 358, N-{2-[2,2,2-trifluoro-1-(pyridin-3-yl)ethoxy]quinolin-3-yl}propane-1-sulfonamide] | 5.00 to 6.00 |
| O=S(=O)(Nc1cc2ccccc2nc1OC(c1cccnc1)C(F)(F)F)c1ccccc1Cl (stereo not drawn) [Compound 360, 2-chloro-N-{2-[2,2,2-trifluoro-1-(pyridin-3-yl)ethoxy]-quinolin-3-yl}benzenesulfonamide] | 5.00 to 6.00 |
| O=S(=O)(Nc1nc2ccncc2nc1OC(c1cccnc1)C(F)(F)F)c1ccccc1Cl (stereo not drawn) [Compound 362, 2-chloro-N-{2-[2,2,2-trifluoro-1-(pyridin-3-yl)ethoxy]-pyrido[3,4-b]pyrazin-2-yl}benzenesulfonamide] | 5.00 to 6.00 |
